Patent US20210000750A1, “ENGINEERED NANOVESICLES AS CHECKPOINT BLOCKADE FOR CANCER IMMUNOTHERAPY” (NORTH CAROLINA STATE UNIVERSITY, priority 2018, published 2021)

Columns and labels:
B16F10 melanoma tumor = test: In vivo anti-tumor efficacy study of NVs; set-up: species or system C57BL/6 mice; conditions: seven-group study, every 3 days for five cycles
Description: Female C57BL/6 mice were purchased from Jackson Lab (USA). All mouse studies were performed in the context of an animal protocol approved by the Institutional Animal Care and Use Committee at North Carolina State University and University of North Carolina at Chapel Hill. Mice were weighed and randomly divided into different groups. 5 d after 1×10^6 B16F10 tumor cells subcutaneously transplanted into the abdomen of mice (the tumor reaches 40-50 mm^3), PBS, Free nanovesicles (25 mg/kg), PD-1 nanovesicles (25 mg/kg), 1-MT (2.5 mg/kg), 1-MT loaded PD-1 nanovesicles (25 mg/kg), anyi-PD-L1 antibody (2 mg/kg) were administered into mice by tail-vein injection. Tumor incidences were monitored by physical examination and sizes were also measured by digital caliper over time. Tumors were measured by using a vernier calipers and the volume (V) was calculated to be V=d^2×D/2, where d is the shortest and the D is longest diameter of the tumor in mm respectively. To assess potential toxicities, mice were monitored daily for weight loss. For survival assays, the experiments were performed separately.
Bioluminescence images were collected with a Xenogen IVIS Spectrum Imaging System. Living Image software (Xenogen) was used to acquire the data 10 min after intraperitoneal injection of d-luciferin (Pierce) in DPBS (15 mg/mL) into animals (10 μL/g of body weight).

[1] = tested on: B16F10 melanoma residual tumor; test: In vivo anti-tumor efficacy, incomplete-tumor-resection model; set-up: species or system C57BL/6 mice; conditions: five-group cyclophosphamide study
Description: (§1) B16F10 luciferase-tagged B16F10 (1×10^6) melanoma tumor cells were transplanted into the right flank of C57BL/6 mice. Eight days after tumor inoculation, the tumors volume reach around ˜150 mm^3. These tumors were then resected, leaving about 15 mm^3 (10%) tumor volume to mimic the residual tumors in the surgical bed. Briefly, animals were anesthetized in an induction chamber using isoflurane (up to 5% for induction; 1-3% for maintenance), and anaesthesia was maintained via a nose cone. The tumor area was clipped and aseptically prepped. Sterile instruments were used to remove approximately 90% of the tumor. The wound was closed using an Autoclip wound closing system. The mice were randomly divided into several groups of eight mice (n=8) as indicated. The mice firstly were intravenously injected with different treatment formulations: PBS, free platelets […], PD-1 platelets (˜2×10^8), cyclophosphamide (20 mg/kg), cyclophosphamide loaded free platelets (˜2×10^8) or cyclophosphamide loaded PD-1 platelets (˜2×10^8). Immediately after the injection, the surgery was carried out within 10 min one mouse by one mouse. The tumor burden was monitored via the bioluminescence of the cancer cells.

CD8^+ TILs = format: in vivo, C57BL/6 mice; conditions: five-group cyclophosphamide study
Description: Tumors were dissected from the mice and snap frozen in optimal cutting medium (O.C.T.). Several micrometer sections were cut using a cryotome and mounted on slides. The frozen tumor sections were incubated in PBS for 15 min to remove the embedding medium. The specimens were blocked with the buffer containing 3% BSA. Subsequently, the specimens incubated with CD4 and CD8 primary antibodies (1:50 in 3% BSA) overnight and then washed three times with PBS for 5 min each. After that the specimens were incubated with TRITC secondary antibody (KPL) diluted in 3% BSA at room temperature in the dark for 1 h. Finally, the nucleus was stained with DAPI, and the tissue was washed three times with PBS for 5 min each. Confocal microscopy was performed on a FLUO-VIEW laser scanning confocal microscope […] in sequential scanning mode using a 40×objective.

Tregs = format: in vivo, C57BL/6 mice; conditions: five-group cyclophosphamide study
[2] = five-group cyclophosphamide study
Description: as §1

Structure (SMILES) | suppression of tumor growth (B16F10 melanoma tumor) | tumor progression [1] | frequency of Ki67+ T cells (CD8^+ TILs) | Tregs within the tumor (Tregs) | hair growth and weight loss [2]
Cn1cc(C[C@H](N)C(=O)O)c2ccccc21 [1-MT, 1-methyl-tryptophan] | limited suppression of tumor growth | – | – | – | –
O=P1(N(CCCl)CCCl)NCCCO1 (centres unmarked) [cyclophosphamide] | – | limited results | increased the frequency | selectively depleted Tregs | delayed hair growth in the abdomen and slighted weight loss
